According to patent US4180669A, “2-(N-phenethyl-4-piperidino)-5-pentyl resorcinol” (Abbott Laboratories, priority 1978, dated 1979):
Counter-ions that a name gives are not always drawn. Like-named read-outs stand apart in the source and are kept apart here.

System: pylorous ligated rats
Assay: Antisecretory activity in the pylorous ligated rat model
Format: in vivo, male Sprague-Dawley rats
Conditions: for inhibition in vivo at 50 mg/kg / inhibition in vivo at 12.5 mg/kg / inhibition in vivo at 25 mg/kg / inhibition in vivo at 100 mg/kg: Rattus norvegicus, 4 h; for inhibition in vivo at 12.5 mg/kg: oral dose 12.5 mg/kg
Description: To determine the antisecretory activity of the present compounds, the compounds were tested for such activity in pylorous ligated rats. In this test, male Sprague-Dawley rats weighing 170-190 g. were fasted for 24 hours. Water was allowed ad libitum. All groups were comprised of six rats. […] Water was withheld after drug administration. Ligation of the pyrloric sphincter was performed under ether anesthesia, and four hours after ligation the animals were sacrificed with CO2. The stomach was dissected out and the contents were expelled into a graduated centrifuge tube. The samples were centrifuged and the volume, less debris, was measured. Sample aliquots were titrated with 0.05 N NaOH to determine acid concentration. Pepsin activity was determined on an auto analyzer using hemoglobin as the substrate by the method of Anson. Group means for volume, acid and pepsin concentrations, and pepsin outputs were compared for statistically significant differences from control means by Student's t-test.

[1] = oral dose 50 mg/kg, negative sign means stimulated
[2] = oral dose 50 mg/kg, negative sign means stimulated, read-out: Percent inhibition of pepsin
[3] = oral dose 50 mg/kg, negative sign means stimulated, read-out: Percent inhibition of pepsin output
[4] = oral dose 50 mg/kg, read-out: Percent inhibition of acid output
[5] = oral dose 50 mg/kg, read-out: Percent inhibition of acidity
[6] = oral dose 50 mg/kg, read-out: Percent inhibition of volume
[7] = negative sign means stimulated, read-out: Percent inhibition of pepsin
[8] = read-out: Percent inhibition of acid output
[9] = read-out: Percent inhibition of acidity
[10] = read-out: Percent inhibition of pepsin output
[11] = read-out: Percent inhibition of volume
[12] = oral dose 25 mg/kg, negative sign means stimulated, read-out: Percent inhibition of pepsin
[13] = oral dose 25 mg/kg, read-out: Percent inhibition of acid output
[14] = oral dose 25 mg/kg, read-out: Percent inhibition of acidity
[15] = oral dose 25 mg/kg, read-out: Percent inhibition of pepsin output
[16] = oral dose 25 mg/kg, read-out: Percent inhibition of volume
[17] = oral dose 100 mg/kg, negative sign means stimulated, read-out: Percent inhibition of pepsin
[18] = oral dose 100 mg/kg, read-out: Percent inhibition of acid output
[19] = oral dose 100 mg/kg, read-out: Percent inhibition of acidity
[20] = oral dose 100 mg/kg, read-out: Percent inhibition of pepsin output
[21] = oral dose 100 mg/kg, read-out: Percent inhibition of volume

| Compound | inhibition in vivo at 50 mg/kg [2] [%] | inhibition in vivo at 50 mg/kg [3] [%] | inhibition in vivo at 50 mg/kg [4] [%] | inhibition in vivo at 50 mg/kg [5] [%] | inhibition in vivo at 50 mg/kg [6] [%] | further results |
| --- | --- | --- | --- | --- | --- | --- |
| 2-(N-Methyl-1,2,3,4-tetrahydro-4-pyridyl)-5-(methyl) resorcinol [IX] | – | – | – | – | – | Percent inhibition of acid output (oral dose 50 mg/kg): 31.7%; Percent inhibition of acidity (oral dose 50 mg/kg): 12.1%; Percent inhibition of volume (oral dose 50 mg/kg): 21.9%; Percent inhibition of pepsin [1]: -7.2%; Percent inhibition of pepsin output [1]: 17.0% |
| 2-(N-Propargyl-1,2,3,4-tetrahydro-4-pyridyl)-3-methoxy-5-(1,2-dimethylheptyl)phenol [XXIX] | – | – | – | – | – | Percent inhibition of acid output (oral dose 25 mg/kg): 7.8%; Percent inhibition of acidity (oral dose 25 mg/kg): 18.6%; Percent inhibition of volume (oral dose 25 mg/kg): -13.0%; Percent inhibition of acid output (oral dose 50 mg/kg): 45.6%; Percent inhibition of acidity (oral dose 50 mg/kg): 50.6%; Percent inhibition of volume (oral dose 50 mg/kg): -5.7%; Percent inhibition of pepsin [1]: 21.0%; Percent inhibition of pepsin output [1]: 23.9%; Percent inhibition of acid output (oral dose 100 mg/kg): 49.5%; Percent inhibition of acidity (oral dose 100 mg/kg): 58.1%; Percent inhibition of volume (oral dose 100 mg/kg): -21.8% |
| CC(C)C(C)c1cc(O)c(C2=CCN(C)CC2)c(O)c1 (stereo not drawn) [Example VII, 2-(N-Methyl-1,2,3,6-tetrahydro-4-pyridyl)-5-(1,2-dimethylpropyl) resorcinol hydrochloride] | -24.6 | -9.9 | 15.8 | 7.1 | 9.5 | – |
| CCCCCc1cc(O)c(C2=CCN(C)CC2)c(O)c1 [Example VIII, 2-(N-Methyl-1,2,3,6-tetrahydro-4-pyridyl)-5-pentyl resorcinol hydrochloride] | -2 | 55.9 | 74.4 | 41.5 | 57.4 | – |
| CCCCCC(C)C(C)c1cc(O)c(C2=CCN(C)CC2)c(O)c1 (stereo not drawn) [Example X, 2-(N-Methyl-1,2,3,6-tetrahydro-4-pyridyl)-5-(1,2-dimethylheptyl) resorcinol] | 41.5 | 48 | 69.3 | 66.8 | 7.7 | inhibition in vivo at 12.5 mg/kg [7]: 23.4%; inhibition in vivo at 12.5 mg/kg [8]: 10.8%; inhibition in vivo at 12.5 mg/kg [9]: 13.1%; inhibition in vivo at 12.5 mg/kg [10]: 22.6%; inhibition in vivo at 12.5 mg/kg [11]: -2.8%; inhibition in vivo at 25 mg/kg [12]: 45.1%; inhibition in vivo at 25 mg/kg [13]: 22.9%; inhibition in vivo at 25 mg/kg [14]: 20.9%; inhibition in vivo at 25 mg/kg [15]: 46.4%; inhibition in vivo at 25 mg/kg [16]: 1.4%; inhibition in vivo at 100 mg/kg [17]: 63%; inhibition in vivo at 100 mg/kg [18]: 69%; inhibition in vivo at 100 mg/kg [19]: 68.4%; inhibition in vivo at 100 mg/kg [20]: 63.2%; inhibition in vivo at 100 mg/kg [21]: 1.7% |
| CC(C)c1cc(O)c(C2=CCN(Cc3ccccc3)CC2)c(O)c1 [Example XI, 2-(N-Benzyl-1,2,3,6-tetrahydro-4-pyridyl)-5-isopropyl resorcinol hydrochloride] | -36 | 47.1 | 68.2 | 22.8 | 63.8 | – |
| CCCCCc1cc(O)c(C2=CCN(CCc3ccccc3)CC2)c(O)c1 [Example XIX, 2-(N-Phenethyl-1,2,3,6-tetrahydro-4-pyridyl)-5-pentyl resorcinol hydrochloride] | 6.9 | 31.7 | 27.3 | 4.2 | 25.5 | – |
| CCCCCC(C)C(C)c1cc(O)c(C2=CCNCC2)c(O)c1 (stereo not drawn) [Example XV, 2-(1,2,3,6-Tetrahydro-4-pyridyl)-5-(1,2-dimethylheptyl) resorcinol hydrochloride] | 53.8 | 54.3 | 22.8 | 24.3 | -1.4 | inhibition in vivo at 100 mg/kg [17]: 34.5%; inhibition in vivo at 100 mg/kg [18]: 52.8%; inhibition in vivo at 100 mg/kg [19]: 43.6%; inhibition in vivo at 100 mg/kg [20]: 41.4%; inhibition in vivo at 100 mg/kg [21]: 12.9% |
| CCCCCC(C)C(C)c1cc(O)c(C2=CCN(CCc3ccccc3)CC2)c(O)c1 (stereo not drawn) [Example XX, 2-(N-Phenethyl-1,2,3,6-tetrahydro-4-pyridyl)-5-(1,2-dimethylheptyl) resorcinol hydrochloride] | – | – | 47.8 | 10.7 | 42.8 | inhibition in vivo at 12.5 mg/kg [8]: 9.7%; inhibition in vivo at 12.5 mg/kg [9]: 8.5%; inhibition in vivo at 12.5 mg/kg [11]: 2.6%; inhibition in vivo at 25 mg/kg [13]: 17.1%; inhibition in vivo at 25 mg/kg [14]: 1.7%; inhibition in vivo at 25 mg/kg [16]: 16.9%; inhibition in vivo at 100 mg/kg [18]: 51.2%; inhibition in vivo at 100 mg/kg [19]: 19.5%; inhibition in vivo at 100 mg/kg [21]: 44.8% |
| CCCCCc1cc(O)c(C2CCN(CCc3ccccc3)CC2)c(O)c1 [Example XXI, 2-(N-Phenethyl-4-piperidino)-5-pentyl resorcinol hydrochloride] | -6.2 | 56.4 | 64.1 | 15 | 58.2 | inhibition in vivo at 12.5 mg/kg [7]: 11.4%; inhibition in vivo at 12.5 mg/kg [8]: 0.5%; inhibition in vivo at 12.5 mg/kg [9]: -4%; inhibition in vivo at 12.5 mg/kg [10]: 19.9%; inhibition in vivo at 12.5 mg/kg [11]: 6.5%; inhibition in vivo at 25 mg/kg [12]: 11.4%; inhibition in vivo at 25 mg/kg [13]: 32.7%; inhibition in vivo at 25 mg/kg [14]: 5.8%; inhibition in vivo at 25 mg/kg [15]: 41.4%; inhibition in vivo at 25 mg/kg [16]: 31.2%; inhibition in vivo at 100 mg/kg [17]: -12.7%; inhibition in vivo at 100 mg/kg [18]: 66.6%; inhibition in vivo at 100 mg/kg [19]: 16.1%; inhibition in vivo at 100 mg/kg [20]: 60.6%; inhibition in vivo at 100 mg/kg [21]: 61.8% |
| CCCCCC(C)C(C)c1cc(O)c(C2CCN(CCc3ccccc3)CC2)c(O)c1 (stereo not drawn) [Example XXII, 2-(N-phenethyl-4-piperidino)-5-(1,2-dimethylheptyl) resorcinol hydrochloride] | -7.1 | 30.9 | 37.6 | 8.5 | 37.3 | – |
| CCCCCC(C)C(C)c1cc(O)c(C2=CC3CCC(C2)N3C)c(O)c1 (stereo not drawn) [Example XXV, 2-(N-Methyl-2,6-ethylidene-1,2,3,6-tetrahydro-4-pyridyl)-5-(1,2-dimethylheptyl) resorcinol hydrochloride] | 1 | 11 | 29.4 | 21.2 | 9.7 | – |
| CCCCCC(C)C(C)c1cc(O)c(C2=CCN(C)CC2)c(OC)c1 (stereo not drawn) [Example XXVI, 2-(N-Methyl-1,2,3,6-tetrahydro-4-pyridyl)-3-methoxy-5-(1,2-dimethylheptyl)phenol hydrochloride] | 12.6 | 8.6 | 53.7 | 53.1 | -0.3 | – |
| CCCCCC(C)C(C)c1cc(O)c(C2=CCN(Cc3ccccc3)CC2)c(OC)c1 (stereo not drawn) [Example XXVII, 2-(N-Benzyl-1,2,3,6-tetrahydro-4-pyridyl)-3-methoxy-5-(1,2-dimethylheptyl)phenol hydrochloride] | 12.1 | -8.6 | -27.8 | -5.6 | – | – |
| CCCCCC(C)C(C)c1cc(O)c(C2CCNCC2)c(OC)c1 (stereo not drawn) [Example XXX, 2-(4-Piperidino)-3-methoxy-5-(1,2-dimethylheptyl)phenol hydrochloride] | – | – | 34.7 | 39.9 | -8.9 | – |
| CC(C)c1cc(O)c(C2=CCNCC2)c(O)c1 [XII, 2-(1,2,3,6-Tetrahydro-4-pyridyl)-5-isopropyl resorcinol hydrochloride] | -3.9 | 12.8 | 16.6 | 1.4 | 15.5 | – |
| CC(C)c1cc(O)c(C2=CCN(C(C)C)CC2)c(O)c1 [XIII, 2-(N-Isopropyl-1,2,3,6-tetrahydro-4-pyridyl)-5-isopropyl resorcinol hydrochloride] | 7.1 | 36.4 | 37.9 | 9.7 | 32 | – |
| CCCCCC(C)C(C)c1cc(O)c(C2CCN(C)CC2)c(O)c1 (stereo not drawn) [XVII, 2-(N-Methyl-4-piperidino)-5-(1,2-dimethylheptyl) resorcinol hydrochloride] | 40.5 | 40.6 | 38.5 | 38.1 | 0.3 | – |
